Results: patent US11759444B2, “Methods for cancer and immunotherapy using prodrugs of glutamine analogs” (The Johns Hopkins University, priority 2015, dated 2023)
Entries after “also recorded” stand apart in the source; their conditions may differ.

Assays:
[1] = In vitro plasma stability, mouse plasma; conditions: Table 2; prodrug 10 μM, 60 min incubation at 37° C.; values read as % prodrug remaining
[2] = In vitro plasma stability, human plasma; conditions: for PLASMA STABILITY Human: Table 2, prodrug 10 μM, 60 min incubation at 37° C., values read as % prodrug remaining
[3] = In vitro plasma stability, monkey plasma; conditions: for PLASMA STABILITY Monkey: Table 2, prodrug 10 μM, 60 min incubation at 37° C., values read as % prodrug remaining
[4] = Plasma and CSF pharmacokinetics in swine, i.v. infusion; type: in vivo, Göttingen×Yucutan miniature swine; conditions: 60 min post-administration
[5] = In vitro liver microsomal stability, pig
[6] = In vitro liver microsomal stability, human
[7] = Chemical stability of DON esters and prodrugs; type: physicochemical

SMILES	PLASMA STABILITY Mouse [1] [%]	PLASMA STABILITY Human [2] [%]	PLASMA STABILITY Monkey [3] [%]	also measured
CC(C)OC(=O)[C@H](CCC(=O)C=[N+]=[N-])NC(=O)[C@@H](N)Cc1cc2ccccc2[nH]1 [Compound 38]	0	30	10	–
CCOC(=O)[C@H](CCC(=O)C=[N+]=[N-])NC(=O)[C@@H](N)Cc1cc2ccccc2[nH]1 [Compound 34]	0	12	4	–
CC(C)OC(=O)[C@H](CCC(=O)C=[N+]=[N-])NC(=O)OC(OC(=O)C(C)(C)C)c1ccccc1 (some centres unmarked) [Compound 47]	–	–	–	CSF delivery of DON [4]: substantially higher amounts of DON; also recorded: enhanced CSF delivery of DON; CSF-to-plasma ratio of DON [4]: increased CSF-to-plasma ratios; also recorded: enhanced CSF:plasma ratio of DON
CC(=O)N[C@@H](Cc1c[nH]c2ccccc12)C(=O)N[C@@H](CCC(=O)C=[N+]=[N-])C(=O)OC(C)C [Compound 60a]	–	–	–	liver microsomal stability, pig [5]: moderate-high stability; liver microsomal stability, human [6]: moderate-high stability
CC(C)OC(=O)[C@H](CCC(=O)C=[N+]=[N-])NC(=O)OCOC(=O)C(C)(C)C [Compound 42]	0	9	0	–
CC(C)OC(=O)[C@@H]1CCC(C=[N+]=[N-])=N1 [Compound 9b]	–	–	–	chemical stability [7]: chemically stable even at acidic pH
CCOC(=O)[C@@H]1CCC(C=[N+]=[N-])=N1 [Compound 9a]	–	–	–	chemical stability [7]: chemically stable even at acidic pH
CC(C)OC(=O)[C@H](CCC(=O)C=[N+]=[N-])NC(=O)[C@@H](N)Cc1c[nH]c2ccccc12 [Compound 38a]	–	–	–	liver microsomal stability, pig [5]: moderate-high stability; liver microsomal stability, human [6]: moderate-high stability
CC(C)OC(=O)C(N)CCC(=O)C=[N+]=[N-] (centres unmarked) [Compound 2b]	–	–	–	chemical stability [7]: unstable
Cc1oc(=O)oc1COC(=O)N[C@@H](CCC(=O)C=[N+]=[N-])C(=O)OC(C)C [Compound 13]	0	0	0	–
CCOC(=O)[C@H](CCC(=O)C=[N+]=[N-])NC(=O)OC(C)OC(=O)C(C)(C)C (some centres unmarked) [Compound 5b]	–	–	–	stability in human plasma [2]: stable; stability in monkey plasma [3]: stable
CCOC(=O)[C@H](CCC(=O)C=[N+]=[N-])NC(=O)OCc1oc(=O)oc1C [Compound 36]	0	0	0	–
CCOC(=O)[C@H](CCC(=O)C=[N+]=[N-])NC(=O)OC(C)OC(=O)C(C)(C)C (some centres unmarked) [Compound 32]	0	88	75	–
CCOC(=O)C(N)CCC(=O)C=[N+]=[N-] (centres unmarked) [Compound 2a]	–	–	–	chemical stability [7]: unstable
CC(C)C[C@H](N)C(=O)N[C@@H](CCC(=O)C=[N+]=[N-])C(=O)OC(C)C [Compound 9]	0	1	1	liver microsomal stability, pig [5]: moderate-high stability; liver microsomal stability, human [6]: moderate-high stability
